A word on the EC50: it is the concentration at which the effect is half-maximal.

Molecules are shown by their SMILES. Bounds are passed on as bounds.

The assay concerns HBV viral load (viral production from HepAD38 cells). The experiment in a line: Activity of test compounds on viral production from HepAD38 cells (viral load by qPCR of HBV core sequence). It counts as cell-based. To be noted: Hepatitis B virus, HePAD38, 120 h, viral load lowering, 5 days, qPCR of supernatant, read-out: VL HepAD38 EC50 range. An outline of the steps:
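HepAD38 cells seeded at 50,000/well in tetracycline-free medium with 2% FBS, treated 5 days at 37 °C with compounds from 10 μM top concentration. Supernatant HBV DNA quantified by TaqMan qPCR of core sequence against HBV DNA standards, relative to DMSO wells; viability by CellTiter-Glo; EC50/CC50 by four-parameter logistic fit.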
In the case of `Cn1cnc(C2CC3CC(O)(c4c(C(F)F)cnn4C)CC3C2)c1C(=O)Nc1ccc(F)c(Cl)c1` (centres unmarked) [Example 145, N-(3-Chloro-4-fluorophenyl)-4-(5-(4-(difluoromethyl)-1-methyl-1H-pyrazol-5-yl)-5-hydroxyoctahydropentalen-2-yl)-1-methyl-1H-imidazole-5-carboxamide], the EC50 is under 10 nM. The value for `Cn1cnc(C2CC3CC(O)(Cn4ccc(C(C)(C)C)n4)CC3C2)c1C(=O)Nc1ccc(F)c(Cl)c1` (centres unmarked) [Example 97, 4-(5-((3-(tert-butyl)-1H-pyrazol-1-yl)methyl)-5-hydroxyoctahydropentalen-2-yl)-N-(3-chloro-4-fluorophenyl)-1-methyl-1H-imidazole-5-carboxamide] was under 10 nM. In the case of `CC#Cc1cc(C2(O)CC3CC(c4ncn(C)c4C(=O)Nc4ccc(F)c(Cl)c4)CC3C2)n(C)n1` (centres unmarked) [Example 56, N-(3-Chloro-4-fluorophenyl)-4-(5-hydroxy-5-(1-methyl-3-(prop-1-yn-1-yl)-1H-pyrazol-5-yl)octahydropentalen-2-yl)-1-methyl-1H-imidazole-5-carboxamide], the EC50 is under 10 nM. As to `Cn1cnc(C2CC3CC(N4CCCCC4)CC3C2)c1C(=O)Nc1ccc(F)c(Cl)c1` (centres unmarked) [Example 46, 5-[-5-(1-Piperidinyl)-1,2,3,3a,4,5,6,6a-octahydropentalen-2-yl]-N-(3-chloro-4-fluorophenyl)-3-methyl-4-imidazolecarboxamide], the EC50 lay within 10 to 50 nM. Take `COc1cc(C2(O)CC3CC(c4ncn(C)c4C(=O)Nc4ccc(F)c(Cl)c4)CC3C2)n(C)n1` (centres unmarked) [Example 93, N-(3-chloro-4-fluorophenyl)-4-(5-hydroxy-5-(3-methoxy-1-methyl-1H-pyrazol-5-yl)octahydropentalen-2-yl)-1-methyl-1H-imidazole-5-carboxamide]: the EC50 is under 10 nM. For `Cn1cnc(C2CC3CC(O)(c4cc(O)nn4C)CC3C2)c1C(=O)Nc1ccc(F)c(Cl)c1` (centres unmarked) [Example 53, N-(3-Chloro-4-fluorophenyl)-4-(5-hydroxy-5-(3-hydroxy-1-methyl-1H-pyrazol-5-yl)octahydropentalen-2-yl)-1-methyl-1H-imidazole-5-carboxamide], the EC50 is under 10 nM. Turning to `CC(O)COc1cc(C2(O)CC3CC(c4ncn(C)c4C(=O)Nc4ccc(F)c(Cl)c4)CC3C2)n(C)n1` (single isomer, unassigned) [Example 209, N-(3-Chloro-4-fluorophenyl)-4-(5-hydroxy-5-(3-(2-hydroxypropoxy)-1-methyl-1H-pyrazol-5-yl)octahydropentalen-2-yl)-1-methyl-1H-imidazole-5-carboxamide], the concentration giving a half-maximal response (EC50) was under 10 nM. Regarding `Cn1cnc(C2CC3CC(O)(c4c[nH]nc4C(F)(F)F)CC3C2)c1C(=O)Nc1ccc(F)c(Cl)c1` (centres unmarked) [Example 150, N-(3-Chloro-4-fluorophenyl)-4-(5-hydroxy-5-(3-(trifluoromethyl)-1H-pyrazol-4-yl)octahydropentalen-2-yl)-1-methyl-1H-imidazole-5-carboxamide], the concentration for a half-maximal effect (EC50) is under 10 nM. In the case of `CC(CO)Oc1cc(C2(O)CC3CC(c4ncn(C)c4C(=O)Nc4ccc(F)c(Cl)c4)CC3C2)n(C)n1` (centres unmarked) [Example 202, N-(3-Chloro-4-fluorophenyl)-4-(5-hydroxy-5-(3-((1-hydroxypropan-2-yl)oxy)-1-methyl-1H-pyrazol-5-yl)octahydropentalen-2-yl)-1-methyl-1H-imidazole-5-carboxamide], the EC50 is under 10 nM. The value for `Cn1cnc(C2CC3CC(O)(c4cc(C(F)(F)F)n[nH]4)CC3C2)c1C(=O)Nc1ccc(F)c(Cl)c1` (centres unmarked) [Example 179, N-(3-Chloro-4-fluorophenyl)-4-(5-hydroxy-5-(3-(trifluoromethyl)-1H-pyrazol-5-yl)octahydropentalen-2-yl)-1-methyl-1H-imidazole-5-carboxamide] was under 10 nM.

`Cn1cnc(C2CC3CC(O)(c4n[nH]cc4C(F)F)CC3C2)c1C(=O)Nc1ccc(F)c(Cl)c1` (centres unmarked) [Example 169, N-(3-Chloro-4-fluorophenyl)-4-(5-(4-(difluoromethyl)-1H-pyrazol-3-yl)-5-hydroxyoctahydropentalen-2-yl)-1-methyl-1H-imidazole-5-carboxamide]: the EC50 was under 10 nM.

Source of the values: patent publication US12655130B2 (ASSEMBLY BIOSCIENCES, INC., priority 2020, dated 2026).
